What all share (test): CEREP protein kinase assay
Holding throughout (assay type): biochemical

For one assay, the target named is T1, LIMK1 (Homo sapiens, UniProt P53667).
T1 construct: purchased CEREP Panlabs (Eurofins)

The target in another assay is T2, ALK4 (Homo sapiens, UniProt P36896).
T2 construct: purchased CEREP Panlabs (Eurofins)
T2 sequence (P36896 24-505): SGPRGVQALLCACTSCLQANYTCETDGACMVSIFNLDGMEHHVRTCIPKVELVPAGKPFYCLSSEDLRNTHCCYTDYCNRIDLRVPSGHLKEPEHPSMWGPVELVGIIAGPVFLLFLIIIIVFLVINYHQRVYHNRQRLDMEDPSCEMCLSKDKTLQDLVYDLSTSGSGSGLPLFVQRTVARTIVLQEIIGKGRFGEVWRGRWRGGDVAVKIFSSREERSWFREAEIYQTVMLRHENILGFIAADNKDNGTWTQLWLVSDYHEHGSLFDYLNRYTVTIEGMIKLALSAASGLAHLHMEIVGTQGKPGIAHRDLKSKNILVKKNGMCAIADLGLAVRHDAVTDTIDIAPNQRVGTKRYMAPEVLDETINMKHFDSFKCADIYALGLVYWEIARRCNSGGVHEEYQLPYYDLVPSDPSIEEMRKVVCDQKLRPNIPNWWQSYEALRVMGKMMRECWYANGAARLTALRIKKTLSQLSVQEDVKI

The target of the next assay is T3, EPHA3 (Homo sapiens, UniProt P29320).
T3 construct: purchased CEREP Panlabs (Eurofins)
T3 sequence (P29320 21-983): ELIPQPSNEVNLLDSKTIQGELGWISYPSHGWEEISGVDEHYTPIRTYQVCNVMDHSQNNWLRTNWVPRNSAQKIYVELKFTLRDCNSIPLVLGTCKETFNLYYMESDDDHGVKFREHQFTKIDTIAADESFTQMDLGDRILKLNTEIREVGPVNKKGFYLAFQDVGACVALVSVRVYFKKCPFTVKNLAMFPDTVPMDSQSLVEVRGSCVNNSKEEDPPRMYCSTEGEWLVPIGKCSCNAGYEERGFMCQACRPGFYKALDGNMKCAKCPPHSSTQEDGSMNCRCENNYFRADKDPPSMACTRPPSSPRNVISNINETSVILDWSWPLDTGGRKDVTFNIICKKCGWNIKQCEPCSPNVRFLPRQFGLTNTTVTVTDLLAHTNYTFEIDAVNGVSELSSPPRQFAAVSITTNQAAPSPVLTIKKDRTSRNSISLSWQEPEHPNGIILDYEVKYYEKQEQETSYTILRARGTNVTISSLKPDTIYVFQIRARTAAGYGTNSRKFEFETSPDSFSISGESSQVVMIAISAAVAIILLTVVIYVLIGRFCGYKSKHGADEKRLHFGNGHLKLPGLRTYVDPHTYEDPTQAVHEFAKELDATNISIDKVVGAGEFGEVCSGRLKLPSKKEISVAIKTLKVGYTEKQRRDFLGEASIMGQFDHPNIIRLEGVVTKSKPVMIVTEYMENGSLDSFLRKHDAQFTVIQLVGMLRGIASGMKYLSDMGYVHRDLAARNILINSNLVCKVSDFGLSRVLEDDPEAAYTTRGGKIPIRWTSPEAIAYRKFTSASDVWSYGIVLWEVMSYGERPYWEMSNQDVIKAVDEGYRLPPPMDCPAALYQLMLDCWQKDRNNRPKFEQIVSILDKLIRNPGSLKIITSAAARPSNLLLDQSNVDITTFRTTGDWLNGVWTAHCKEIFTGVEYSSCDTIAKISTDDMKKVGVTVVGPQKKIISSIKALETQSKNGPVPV

For the next assay, the target named is T4, MNK2 (Homo sapiens, UniProt Q9HBH9).
T4 construct: purchased CEREP Panlabs (Eurofins)
T4 sequence (Q9HBH9 whole entry): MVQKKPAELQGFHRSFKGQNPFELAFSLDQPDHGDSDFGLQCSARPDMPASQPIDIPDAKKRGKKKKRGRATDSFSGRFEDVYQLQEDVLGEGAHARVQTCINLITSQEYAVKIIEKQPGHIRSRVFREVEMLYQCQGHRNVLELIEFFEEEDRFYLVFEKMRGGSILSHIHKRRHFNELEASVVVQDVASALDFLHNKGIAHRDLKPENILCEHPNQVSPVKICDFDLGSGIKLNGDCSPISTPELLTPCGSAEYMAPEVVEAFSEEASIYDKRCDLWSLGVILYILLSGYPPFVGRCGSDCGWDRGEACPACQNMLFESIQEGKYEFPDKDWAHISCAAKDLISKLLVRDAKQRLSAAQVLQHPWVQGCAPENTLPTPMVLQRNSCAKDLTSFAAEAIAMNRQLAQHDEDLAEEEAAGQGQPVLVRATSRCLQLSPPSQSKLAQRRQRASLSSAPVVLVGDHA

The target of the next assay is T5, DYRK2 (Homo sapiens, UniProt Q92630).
T5 construct: purchased CEREP Panlabs (Eurofins)
T5 sequence (Q92630 1-601): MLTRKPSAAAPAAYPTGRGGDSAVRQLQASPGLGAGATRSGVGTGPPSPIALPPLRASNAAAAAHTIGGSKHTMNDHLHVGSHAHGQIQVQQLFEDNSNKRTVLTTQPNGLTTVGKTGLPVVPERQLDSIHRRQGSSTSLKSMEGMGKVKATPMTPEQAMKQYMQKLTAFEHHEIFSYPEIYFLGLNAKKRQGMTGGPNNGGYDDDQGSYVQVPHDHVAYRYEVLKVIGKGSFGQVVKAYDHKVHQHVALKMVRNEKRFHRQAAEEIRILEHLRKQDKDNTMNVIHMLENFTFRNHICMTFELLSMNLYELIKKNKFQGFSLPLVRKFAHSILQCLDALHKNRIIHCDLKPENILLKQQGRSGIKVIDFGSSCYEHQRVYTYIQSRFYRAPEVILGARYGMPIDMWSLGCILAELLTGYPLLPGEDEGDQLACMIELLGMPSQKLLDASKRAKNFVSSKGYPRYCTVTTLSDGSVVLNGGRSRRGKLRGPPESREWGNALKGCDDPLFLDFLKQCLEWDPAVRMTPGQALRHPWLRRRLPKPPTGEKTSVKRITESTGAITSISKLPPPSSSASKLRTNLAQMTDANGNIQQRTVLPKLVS

T1 sequence (P53667 whole entry): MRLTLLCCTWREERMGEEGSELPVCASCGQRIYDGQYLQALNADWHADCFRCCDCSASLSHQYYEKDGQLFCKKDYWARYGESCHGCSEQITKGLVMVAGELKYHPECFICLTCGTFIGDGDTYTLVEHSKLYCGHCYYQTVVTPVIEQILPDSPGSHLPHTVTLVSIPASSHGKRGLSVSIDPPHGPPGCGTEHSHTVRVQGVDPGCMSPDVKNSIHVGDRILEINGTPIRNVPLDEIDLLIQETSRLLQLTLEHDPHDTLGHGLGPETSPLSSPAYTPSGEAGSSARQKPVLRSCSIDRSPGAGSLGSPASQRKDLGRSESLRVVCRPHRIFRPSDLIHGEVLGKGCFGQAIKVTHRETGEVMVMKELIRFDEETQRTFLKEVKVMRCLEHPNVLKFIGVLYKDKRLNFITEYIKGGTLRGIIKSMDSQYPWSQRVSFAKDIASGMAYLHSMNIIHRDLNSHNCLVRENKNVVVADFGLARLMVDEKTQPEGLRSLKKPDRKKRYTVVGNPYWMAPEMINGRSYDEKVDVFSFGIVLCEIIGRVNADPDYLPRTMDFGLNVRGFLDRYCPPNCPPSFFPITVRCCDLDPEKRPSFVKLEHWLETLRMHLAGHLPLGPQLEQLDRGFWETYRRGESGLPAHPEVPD

In the case of `O=c1[nH]ccc2cc(F)c(NS(=O)(=O)c3ccc(N4CC[C@@H](O)C4)s3)cc12` [LSN3213128, N-(6-Fluoro-1-oxo-1,2-dihydroisoquinolin-7-yl)-5-[(3R)-3-hydroxypyrrolidin-1-yl]thiophene-2-sulfonamide], the inhibition – broadly, the relative decrease from the control value, in per cent – at 0.2 µM at LIMK1 (@ 0.2 uM) was -7.18%; at ALK4 (@ 0.2 uM) it was -10.5%; against EPHA3 (@ 0.2 uM) it was -2.09%; on MNK2 (@ 0.2 uM), -1.93%; against DYRK2 (@ 0.2 uM), -2.01%. Also, the inhibition at 2 µM against LIMK1 (@ 2 uM) is 5.89%; against ALK4 (@ 2 uM), 10.4%; against EPHA3 (@ 2 uM), 9.04%; against MNK2 (@ 2 uM), 4.7%; at DYRK2 (@ 2 uM), -0.829%. Also, the inhibition at 20 µM against LIMK1 (@ 20 uM) turned out to be 0.523%; at ALK4 (@ 20 uM), 55%; against EPHA3 (@ 20 uM) it was 51.6%; against MNK2 (@ 20 uM), 5.92%; at DYRK2 (@ 20 uM), 11.7%.
